Tested on: HaCaT human keratinocytes
Experiment: Affymetrix GeneChip microarray, transcriptional response to β-carotene and/or UVA
Type: cell-based
Protocol: The cell culture experiments were carried out as described. Briefly, a subclone of passage 65 HaCaT keratinocytes, selected for differentiation capacity, was used at passages 16 to 23 after subcloning. 2×10^5 cells were seeded per 60 millimeter dish. Starting the following day, the cells were pretreated for 2 days with β-carotene at 1.5 μM, a typical concentration in human plasma after moderate dietary supplementation)
β-carotene-containing medium was prepared as follows. Fresh all-E-β-carotene (DSM Nutritional Products, Kaiseraugst, Switzerland) stock solution in THF (containing 0.025% BHT; Fluka Chemie A G, Switzerland) was diluted 1:2 with ethanol and added to cell culture medium to a final concentration of 1.5 μM β-carotene. The solvent concentration in the medium was 0.5% for all treatments. β-carotene-containing medium was prepared fresh for the daily medium changes.
On day 3 of the experiment, the cells were irradiated with a Hönle sun lamp Sol 500 (270 kJ/m^2; Dr. Hönle, Germany).
Five independent, factorially designed cell irradiation experiments were analyzed by microarray hybridization. For each experiment, one chip was hybridized per treatment condition. GeneChip® analysis was done as described in [132], which is incorporated by reference, as if recited in full herein. Gene regulation by β-carotene and/or UVA was calculated relative to placebo.
Changes in gene expression were included in further analysis only if the change factor was […], and if unpaired t-tests yielded p values≦0.05. Upregulations by a […] are labeled bold, downregulations by a change factor of […] are labeled bold italics. (Table 1) To identify the pathways affected by the treatments functional information on the genes was retrieved from public literature databases.

Structure (SMILES): CC1=C(/C=C/C(C)=C/C=C/C(C)=C/C=C/C=C(C)/C=C/C=C(C)/C=C/C2=C(C)CCCC2(C)C)C(C)(C)CCC1 [β-carotene, All-E-β-carotene]
- NCF2; p67-phox; neutrophil oxidase factor (M32011) change factor (UVA and β-carotene 1.5 μM): −0.16
- NF-κB subunit (S78771) change factor (UVA and β-carotene 1.5 μM): 0.56
- NF-κB subunit (X61498) change factor (UVA and β-carotene 1.5 μM): 0.7
- NFκB; p50 (S76638) change factor (UVA and β-carotene 1.5 μM): 0.55
- NOL1; p120 nucleolar antigen (X55504) change factor (UVA and β-carotene 1.5 μM): 0.94
- NOTCH3 (U97669) change factor (UVA and β-carotene 1.5 μM): −1.37
- NOV (X96584) change factor (UVA and β-carotene 1.5 μM): 0.72
- NOXA (D90070) change factor (UVA and β-carotene 1.5 μM): 0.74
- NRF1 (L24123) change factor (UVA and β-carotene 1.5 μM): −0.65
- NRF2, subunit beta 1 (U13045) change factor (UVA and β-carotene 1.5 μM): −0.11
- OSR1; oxidative-stress responsive 1 (AB017642) change factor (UVA and β-carotene 1.5 μM): 0.59
- PAR-1; thrombin receptor (M62424) change factor (UVA and β-carotene 1.5 μM): −0.05
- PAR-2; proteinase activated receptor-2 (U34038) change factor (UVA and β-carotene 1.5 μM): 1.91
- PAR-2; proteinase activated receptor-2 (U34038, second entry) change factor (UVA and β-carotene 1.5 μM): 1.34
- PAR-2; proteinase activated receptor-2 (U67058) change factor (UVA and β-carotene 1.5 μM): 3.32
- PAR-4; protease-activated receptor 4 (AF055917) change factor (UVA and β-carotene 1.5 μM): −0.57
- RAIDD; death adaptor molecule (U79115) change factor (UVA and β-carotene 1.5 μM): −0.66
- RB1 (L49229) change factor (UVA and β-carotene 1.5 μM): −1.13
- RB2/p130 (X74594) change factor (UVA and β-carotene 1.5 μM): −0.85
- RETSDR1; retinal short-chain dehydrogenase/reductase (AF061741) change factor (UVA and β-carotene 1.5 μM): −0.06
- RPA; replication protein A 14 kda subunit (rpa) (L07493) change factor (UVA and β-carotene 1.5 μM): −0.52
- RXRα (U66306) change factor (UVA and β-carotene 1.5 μM): −0.61
- RXRα (X52773) change factor (UVA and β-carotene 1.5 μM): −0.57
- Requiem (AF001433) change factor (UVA and β-carotene 1.5 μM): 0.32
- SMAD 1 (U59423) change factor (UVA and β-carotene 1.5 μM): −0.57
- SMAD3 (U68019) change factor (UVA and β-carotene 1.5 μM): 0.01
- SMAD3 (U68019, second entry) change factor (UVA and β-carotene 1.5 μM): −0.09
- SMAD4 (U44378) change factor (UVA and β-carotene 1.5 μM): −0.67
- SMAD5 (U59913) change factor (UVA and β-carotene 1.5 μM): −0.84
- SMAD6 (AF035528) change factor (UVA and β-carotene 1.5 μM): −24.2
- SMAD7 (AF010193) change factor (UVA and β-carotene 1.5 μM): −0.63
- SMRT (U37146) change factor (UVA and β-carotene 1.5 μM): −1.22
- STK15; BTAK (AF011468) change factor (UVA and β-carotene 1.5 μM): −1.85
- TDAG51; PQ-rich protein; PHLDA1 (Z50194) change factor (UVA and β-carotene 1.5 μM): 6.19
- TGFβ; transforming growth factor β (X02812) change factor (UVA and β-carotene 1.5 μM): 0.46
- TIAR; nucleolysin tiar (M96954) change factor (UVA and β-carotene 1.5 μM): −0.08
- TIEG, EGRα (AF050110) change factor (UVA and β-carotene 1.5 μM): −0.11
- TLR3; toll-like receptor 3 (U88879) change factor (UVA and β-carotene 1.5 μM): −0.91
- TOP2; topoisomerase II (J04088) change factor (UVA and β-carotene 1.5 μM): −0.86
- TRADD; TNF receptor-1 associated protein (L41690) change factor (UVA and β-carotene 1.5 μM): −0.85
- TRAIL; TNF-related apoptosis inducing ligand (U37518) change factor (UVA and β-carotene 1.5 μM): −2.66
- TRIP14; ‘2-5’ oligoadenylate synthetase (AJ225089) change factor (UVA and β-carotene 1.5 μM): 0.67
- TRIP (U77845) change factor (UVA and β-carotene 1.5 μM): −1.35
- TSSC3 (AF035444) change factor (UVA and β-carotene 1.5 μM): 0.7
- TSSC3/IPL (AF001294) change factor (UVA and β-carotene 1.5 μM): 1.02
- VEGF (AF022375) change factor (UVA and β-carotene 1.5 μM): 0.78
- VEGF (AF024710) change factor (UVA and β-carotene 1.5 μM): 1.86
- VEGF (M63978) change factor (UVA and β-carotene 1.5 μM): 1.09
- VEGFR2; VEGF receptor 2; KDR; FLK-1kdr/flk-1 (AF035121) change factor (UVA and β-carotene 1.5 μM): −0.28
- WEE1 (X62048) change factor (UVA and β-carotene 1.5 μM): 0.05
- WNT5A (I20861) change factor (UVA and β-carotene 1.5 μM): −2.22
- WNT5A (I20861, second entry) change factor (UVA and β-carotene 1.5 μM): −3.34
- XRCC4 (U40622) change factor (UVA and β-carotene 1.5 μM): −0.01
- bFGF; basic fibroblast growth factor; FGF2 (M27968) change factor (UVA and β-carotene 1.5 μM): 0.82
- bilirubin udp-glucuronosyltransferase isozyme 2 (M57951) change factor (UVA and β-carotene 1.5 μM): −0.66
- bullous pemphigoid autoantigen bp180 (M91669) change factor (UVA and β-carotene 1.5 μM): −0.57
- c-myc (V00568) change factor (UVA and β-carotene 1.5 μM): 3.22
- c-myc (V00568, second entry) change factor (UVA and β-carotene 1.5 μM): 2.45
- c-myc binding protein (mbp-1) (M55914) change factor (UVA and β-carotene 1.5 μM): 0.54
- caspase 2, ICH-1S (U13022) change factor (UVA and β-carotene 1.5 μM): −0.62
- caspase 7 (U67319) change factor (UVA and β-carotene 1.5 μM): 0.31
- ceruloplasmin (ferroxidase) (M13699) change factor (UVA and β-carotene 1.5 μM): 1
- collagen type IV, α-2 (COL4A2) (X05610) change factor (UVA and β-carotene 1.5 μM): −0.98
- collagen type IV, α-5 (COL4A5) (M58526) change factor (UVA and β-carotene 1.5 μM): −1.16
- collagen type IV, α-6 (COL4A6) (D21337) change factor (UVA and β-carotene 1.5 μM): −0.71
- collagen type VII, α-1 (COL7A1) (L02870) change factor (UVA and β-carotene 1.5 μM): −0.83
- connexin 31 (AF099730) change factor (UVA and β-carotene 1.5 μM): 2.3
- connexin 45 (U03493) change factor (UVA and β-carotene 1.5 μM): 0.26
- coproporphyrinogen oxidase (D16611) change factor (UVA and β-carotene 1.5 μM): −0.7
- cyclin E2 (AF091433) change factor (UVA and β-carotene 1.5 μM): 0.26
- cyclin E (M73812) change factor (UVA and β-carotene 1.5 μM): 1.75
- desmocollin type 4 (D17427) change factor (UVA and β-carotene 1.5 μM): −1.71
- ferritin heavy chain (L20941) change factor (UVA and β-carotene 1.5 μM): 0.59
- frizzled-2 (I37882) change factor (UVA and β-carotene 1.5 μM): −1.38
- frizzled-6 (AB012911) change factor (UVA and β-carotene 1.5 μM): −1.16
- haemochromatosis protein (hla-h) (U60319) change factor (UVA and β-carotene 1.5 μM): −0.61
- hsp40; heat shock protein 40 (U40992) change factor (UVA and β-carotene 1.5 μM): −0.07
- integrin α6 (X53586) change factor (UVA and β-carotene 1.5 μM): −0.76
- integrin α6b (S66213) change factor (UVA and β-carotene 1.5 μM): −0.46
- integrin α6b (S66213, second entry) change factor (UVA and β-carotene 1.5 μM): −0.73
- jagged2 (jag2) (AF029778) change factor (UVA and β-carotene 1.5 μM): −0.67
- keratin 2e (KRT2E); Keratin 2A (AF019084) change factor (UVA and β-carotene 1.5 μM): −0.69
- keratin 5 (M21389) change factor (UVA and β-carotene 1.5 μM): 0.81
- keratin 15 (J00124) change factor (UVA and β-carotene 1.5 μM): 0.96
- keratin 16 (M28439) change factor (UVA and β-carotene 1.5 μM): −0.38
- keratin 17 (Z19574) change factor (UVA and β-carotene 1.5 μM): 0.6
- mKI67a mrna (long type) for antigen of monoclonal antibody KI-67 (X65550) change factor (UVA and β-carotene 1.5 μM): −0.87
- mKI67a mrna (long type) for antigen of monoclonal antibody KI-67 (X65550, second entry) change factor (UVA and β-carotene 1.5 μM): −1.59
- ornithine decarboxylase (M33764) change factor (UVA and β-carotene 1.5 μM): 0.57
- ornithine decarboxylase (X16277) change factor (UVA and β-carotene 1.5 μM): 0.37
- p21; wild-type p53 activated fragment-1 (WAF1) (U03106) change factor (UVA and β-carotene 1.5 μM): 0.21
- p33; ING1b (AB024401) change factor (UVA and β-carotene 1.5 μM): 0.64
- p160ROCK (U43195) change factor (UVA and β-carotene 1.5 μM): −0.55
- protoporphyrinogen oxidase (D38537) change factor (UVA and β-carotene 1.5 μM): −0.54
- rTS α (X67098) change factor (UVA and β-carotene 1.5 μM): −0.47
- serpinB1 (M93056) change factor (UVA and β-carotene 1.5 μM): 0.57
- stimulator of Fe transport (AF020761) change factor (UVA and β-carotene 1.5 μM): 1.03
- thioredoxin reductase (X91247) change factor (UVA and β-carotene 1.5 μM): 1.48
- thymidylate synthase (X02308) change factor (UVA and β-carotene 1.5 μM): −0.56
- transferrin receptor (X01060) change factor (UVA and β-carotene 1.5 μM): 0.91
- uroporphyrinogen III synthase (J03824) change factor (UVA and β-carotene 1.5 μM): −0.61
- α topoisomerase truncated-form (L47276) change factor (UVA and β-carotene 1.5 μM): −0.81
- reduction of UVA induction of MMP-10 (β-carotene 1.5 μM, 5 hours after UVA): 30%
